# Values of other authors as cited in patent US20250090476A1, “PHARMACEUTICAL COMPOSITION AND BREXPIPRAZOLE ORALLY SOLUABLE FILM” (WISDOM PHARMACEUTICAL CO., LTD., priority 2022, published 2025).
smiles,measurement,value
O=c1ccc2ccc(OCCCCN3CCN(c4cccc5sccc45)CC3)cc2[nH]1 [Brexpiprazole],solubility,low
